According to publication PMC13195669, “GPR3 Ligands Discovered through Combined Virtual and Conformational Biosensor-Based Screening” (Journal of the American Chemical Society, 2026):

Key:
S1P receptor 1 (S1PR1) = target: T1, S1P receptor 1 (S1PR1) (Homo sapiens, UniProt P21453); assay: cAMP GloSensor 22F, agonist-stimulated S1PR1; type: cell-based; settings: preincubation with 100 μM or 10 μM; 10 µM forskolin
T1 construct: expressed in transfected cells; host or cells: HEK293A, transient
Protocol: Next, we used the classical cAMP GloSensor technology to assess the target selectivity profile of 33. […] In addition, we tested the effects of 33 on cAMP changes mediated by agonist-stimulated GPCRs phylogenetically close to GPR3 and coupling to Gs or Gi/o proteins.
BRET-based GPCR conformational sensor experiments
(§1) Cells expressing the conformational GPCR biosensors were grown for 24 h (stable cells) or 48 h (transiently transfected cells) in white 96-well plates and washed with 100 µl of HBSS. After washing, cells were incubated for 2 minutes with a 1/1000 solution of the furimazine stock solution (Promega; cat. no. N1662). Three baseline BRET reads were recorded and averaged prior to the addition of serial dilutions of ligands or veh icle control and subsequent BRET reads. […] BRE T donor emission was quantified with a 470/80 nm monochromator. […] Experiments were carried out using a CLARIOstar plate reader.
FRET- and BRET-based measurements of cAMP levels and Gs dissociation/reassociation Transfected cells grown in black 96-well plates were washed twice with 100 µl of HBSS 48 h after transfection and incubated with HBSS. […] Three baseline FRET/BRET reads were recorded and averaged prior to the addition of serial dilutions of ligands or vehicle control and sub-sequent FRET/BRET reads. […] FRET donor emission was quantified with a 480/10 nm filter. […]
Luminescence measurement using the cAMP GloSensor™ 22F […]

[1] = system: GPR3 mutant (bulky tryptophan residues in extracellular loop 2); assay: GPR3 conformational biosensor with tryptophan insertions in extracellular loop 2; type: cell-based, human; settings: wildtype vs mutant biosensor; transiently transfected HEK293A
Excerpt: To develop a hypothesis for the cause of the significant loss in efficacy from VH1 to 33, we computationally predicted the binding poses of both molecules in GPR3 (Figure a). […] In contrast, the cyclopropyl ring of 33 is still buried in the receptor’s transmembrane core. […] We also challenged this binding model of 33 with another GPR3 biosensor variant which harbors the T^3.37A point mutation in transmembrane helix 3. According to an alternative predicted pose of 33 obtained with Boltz-2 (c.f., SI – Materials and Methods section), this mutation should hamper 33 binding to GPR3.
5 Proposed binding poses of VH1 and 33. […]
as §1, with “After washing, cells were incubated for 2 minutes with a 1/1000 solution of the furimazine stock solution (Promega; cat. no. N1662).” left out
FRET- and BRET-based measurements of cAMP levels and Gs dissociation/reassociation Transfected cells grown in black 96-well plates were washed twice with 100 µl of HBSS 48 h after transfection and incubated with HBSS. […] FRET donor emission was quantified with a 480/10 nm filter. […]

T1 sequence (P21453 whole entry, species assumed): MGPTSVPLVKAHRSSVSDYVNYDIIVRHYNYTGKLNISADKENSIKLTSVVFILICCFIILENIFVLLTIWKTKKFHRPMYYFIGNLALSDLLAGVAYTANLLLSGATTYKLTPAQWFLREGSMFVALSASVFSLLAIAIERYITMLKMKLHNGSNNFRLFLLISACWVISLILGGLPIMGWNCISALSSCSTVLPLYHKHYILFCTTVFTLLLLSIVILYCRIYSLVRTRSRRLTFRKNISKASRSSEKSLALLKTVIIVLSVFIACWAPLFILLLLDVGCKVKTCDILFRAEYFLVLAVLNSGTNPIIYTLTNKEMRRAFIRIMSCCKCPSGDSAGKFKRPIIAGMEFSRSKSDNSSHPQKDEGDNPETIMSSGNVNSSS

Structure (SMILES) | effect on agonist-induced cAMP change mediated by S1PR1 (S1P receptor 1 (S1PR1)) | effect of extracellular loop 2 tryptophan insertions on concentration-response [1]
N=c1n(Cc2ccccc2)c2ccccc2n1CC1CC1 [compound 33] | neither 100 μM nor 10 μM 33 significantly altered | not affected by these modifications
N=c1n(Cc2ccccc2)c2ccccc2n1CC(O)COc1ccc(Cl)cc1 (stereo not drawn) [compound 52] | – | right-shifted
